Assay results taken from patent publication US20160280699A1, “SUBSTITUTED PHENYLALANINE DERIVATIVES” (BAYER PHARMA AKTIENGESELLSCHAFT, priority 2013, published 2016).
Structures can show the parent of a compound that is named as a salt.

Tests used:
human factor XIa = molecular target: T1, human factor XIa (Homo sapiens, UniProt P03951); assay: Measurement of FXIa inhibition (fluorogenic peptide substrate Boc-Glu(OBzl)-Ala-Arg-AMC); format: biochemical; conditions: factor XIa from Kordia, 15 min preincubation, 30 min at 22° C., fluorescence
T1 construct: purchased Kordia
T1 sequence (P03951 388-625 limits assumed): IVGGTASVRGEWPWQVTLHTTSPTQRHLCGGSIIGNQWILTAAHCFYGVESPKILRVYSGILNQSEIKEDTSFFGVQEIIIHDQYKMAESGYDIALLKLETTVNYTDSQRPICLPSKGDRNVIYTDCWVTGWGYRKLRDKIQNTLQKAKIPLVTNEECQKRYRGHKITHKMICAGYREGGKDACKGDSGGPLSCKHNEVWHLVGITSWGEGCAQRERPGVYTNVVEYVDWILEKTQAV
T1 sequence (P03951 19-387 partner limits assumed): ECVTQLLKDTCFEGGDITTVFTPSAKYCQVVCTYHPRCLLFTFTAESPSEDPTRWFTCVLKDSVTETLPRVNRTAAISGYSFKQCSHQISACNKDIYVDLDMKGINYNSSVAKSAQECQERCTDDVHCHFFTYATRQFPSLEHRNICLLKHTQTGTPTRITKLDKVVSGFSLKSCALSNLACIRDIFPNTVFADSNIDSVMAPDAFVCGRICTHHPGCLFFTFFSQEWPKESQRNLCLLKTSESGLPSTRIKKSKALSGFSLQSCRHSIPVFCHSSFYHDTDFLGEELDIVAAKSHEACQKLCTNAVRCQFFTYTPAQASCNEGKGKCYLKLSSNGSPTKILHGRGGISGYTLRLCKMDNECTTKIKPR
Description: The factor XIa inhibition of the substances according to the invention is determined using a biochemical test system which utilizes the reaction of a peptidic factor XIa substrate to determine the enzymatic activity of human factor XIa. Here, factor XIa cleaves from the peptic factor XIa substrate the C-terminal aminomethylcoumarin (AMC), the fluorescence of which is measured. The determinations are carried out in microtitre plates.
Test substances are dissolved in dimethyl sulphoxide and serially diluted in dimethyl sulphoxide (3000 μM to 0.0078 μM; resulting final concentrations in the test: 50 μM to 0.00013 μM). In each case 1 μl of the diluted substance solutions is placed into the wells of white microtitre plates from Greiner (384 wells). Subsequently, the following are added successively: 20 μl of assay buffer (50 mmol/l Tris buffer pH 7.4; 100 mmol/l sodium chloride; 5 mmol/l calcium chloride; 0.1% bovine serum albumin) and 20 μl of factor XIa from Kordia (0.45 nM in assay buffer). After 15 min of incubation, the enzyme reaction is started by addition of 20 μl of the factor XIa substrate Boc-Glu(OBzl)-Ala-Arg-AMC dissolved in assay buffer (10 μM in assay buffer) from Bachem, the mixture is incubated at room temperature (22° C.) for 30 min and fluorescence is then measured (excitation: 360 nm, emission: 460 nm). The measured emissions of the test batches with test substance are compared to those of control batches without test substance (only dimethyl sulphoxide instead of test substance in dimethyl sulphoxide), and IC50 values are calculated from the concentration/activity relationships.

human and animal plasma = assay: Determination of anticoagulatory activity: activated partial thromboplastin time (aPTT) in plasma; format: biochemical; conditions: concentration of test substance which brings about a 1.5-fold extension of the aPTT, 37° C., C.K. Prest kit
Description: The anticoagulatory activity of the test substances is determined in vitro in human and animal plasma (for example mouse, rat, rabbit, pig and dog plasma). To this end, blood is drawn off in a mixing ratio of sodium citrate/blood of 1:9 using a 0.11 molar sodium citrate solution as receiver. Immediately after the blood has been drawn off, it is mixed thoroughly and centrifuged at about 4000 g for 15 minutes. The supernatant is pipetted off.
The activated partial thromboplastin time (aPTT) is determined in the presence of varying concentrations of test substance or the corresponding solvent using a commercial test kit (C.K. Prest from Diagnostica Stago). The test compounds are incubated with the plasma and the PTT reagent (cephalin, kaolin) at 37° C. for 3 minutes. Coagulation is then started by addition of a 25 mM aqueous calcium chloride solution, and the time when coagulation occurs is determined. The concentration of test substance which brings about a 1.5-fold extension of the aPTT is determined Activity data from this test are listed in Table B below: […]

## NC[C@H]1CC[C@H](C(=O)N[C@@H](Cc2ccc(-c3ccnc(N4CCOCC4)c3F)cc2)C(=O)Nc2ccc(-c3nn[nH]n3)cc2)CC1 [Example 46, N-alpha-{[trans-4-(Aminomethyl)cyclohexyl]carbonyl}-4-[3-fluoro-2-(morpholin-4-yl)pyridin-4-yl]-N-[4-(2H-tetrazol-5-yl)phenyl]-L-phenylalaninamide hydrochloride]
Human factor XIa
  IC50: 3.7 nM
Human and animal plasma
  aPTT: 0.45 µmol/L

## COc1ccc(-c2ccc(C[C@H](NC(=O)[C@H]3CC[C@H](CN)CC3)C(=O)Nc3ccc(-c4nn[nH]n4)cc3)cc2)cn1 [Example 38, N-alpha-{[trans-4-(Aminomethyl)cyclohexyl]carbonyl}-4-(6-methoxypyridin-3-yl)-N-[4-(2H-tetrazol-5-yl)phenyl]-L-phenylalaninamide]
Human factor XIa
  IC50: 4.8 nM

## CN1CCN(c2cc(-c3ccc(C[C@H](NC(=O)C4CCC(CN)CC4)C(=O)Nc4ccc(-c5nnn[nH]5)cc4)cc3)ccn2)CC1 (stereo partly drawn) [Example 53, N-alpha-{[trans-4-(Aminomethyl)cyclohexyl]carbonyl}-4-[2-(4-methylpiperazin-1-yl)pyridin-4-yl]-N-[4-(1H-tetrazol-5-yl)phenyl]-L-phenylalaninamide hydrochloride]
Human factor XIa
  IC50: 11 nM
Human and animal plasma
  aPTT: 0.21 µmol/L

## COc1ccc(-c2ccc(C[C@H](NC(=O)[C@H]3CC[C@H](CN)CC3)C(=O)Nc3ccc(-c4nn[nH]n4)cc3)cc2)c(C)n1 [Example 21, N-alpha-{[trans-4-(Aminomethyl)cyclohexyl]carbonyl}-4-(6-methoxy-2-methylpyridin-3-yl)-N-[4-(2H-tetrazol-5-yl)phenyl]-L-phenylalaninamide hydrochloride]
Human factor XIa
  IC50: 1.3 nM
Human and animal plasma
  aPTT: 0.27 µmol/L

## NC[C@H]1CC[C@H](C(=O)N[C@@H](Cc2ccc(-c3ccc(NCCN4CCOCC4)nc3)cc2)C(=O)Nc2ccc(-c3nn[nH]n3)cc2)CC1 [Example 16, N-alpha-{[trans-4-(Aminomethyl)cyclohexyl]carbonyl}-4-(6-{[2-(morpholin-4-yl)ethyl]amino}pyridin-3-yl)-N-[4-(2H-tetrazol-5-yl)phenyl]-L-phenylalaninamide hydrochloride]
Human factor XIa
  IC50: 13 nM
Human and animal plasma
  aPTT: 0.33 µmol/L

## CN(C)c1ccc(-c2ccc(C[C@H](NC(=O)[C@H]3CC[C@H](CN)CC3)C(=O)Nc3ccc(-c4nnn[nH]4)cc3)cc2)cn1 [Example 4, N-alpha-{[trans-4-(Aminomethyl)cyclohexyl]carbonyl}-4-[6-(dimethylamino)pyridin-3-yl]-N-[4-(1H-tetrazol-5-yl)phenyl]-L-phenylalaninamide hydrochloride]
Human factor XIa
  IC50: 3.8 nM
Human and animal plasma
  aPTT: 0.23 µmol/L

## Cc1cc(N2CCOCC2)ncc1-c1ccc(C[C@H](NC(=O)[C@H]2CC[C@H](CN)CC2)C(=O)Nc2ccc(-c3nn[nH]n3)cc2)cc1 [Example 29, N-alpha-{[trans-4-(Aminomethyl)cyclohexyl]carbonyl}-4-[4-methyl-6-(morpholin-4-yl)pyridin-3-yl]-N-[4-(2H-tetrazol-5-yl)phenyl]-L-phenylalaninamide hydrochloride]
Human factor XIa
  IC50: 1.3 nM
Human and animal plasma
  aPTT: 0.21 µmol/L

## NC[C@H]1CC[C@H](C(=O)N[C@@H](Cc2ccc(-c3cnc(N4CCCCC4)nc3O)cc2)C(=O)Nc2ccc(-c3nn[nH]n3)cc2)CC1 [Example 40, N-alpha-{[trans-4-(Aminomethyl)cyclohexyl]carbonyl}-4-[4-hydroxy-2-(piperidin-1-yl)pyrimidin-5-yl]-N-[4-(2H-tetrazol-5-yl)phenyl]-L-phenylalaninamide hydrochloride]
Human factor XIa
  IC50: 2.6 nM
Human and animal plasma
  aPTT: 0.08 µmol/L

## Cc1cc(N2CCNCC2)ncc1-c1ccc(C[C@H](NC(=O)[C@H]2CC[C@H](CN)CC2)C(=O)Nc2ccc(-c3nn[nH]n3)cc2)cc1 [Example 41, N-alpha-{[trans-4-(Aminomethyl)cyclohexyl]carbonyl}-4-[4-methyl-6-(piperazin-1-yl)pyridin-3-yl]-N-[4-(2H-tetrazol-5-yl)phenyl]-L-phenylalaninamide hydrochloride]
Human factor XIa
  IC50: 3.2 nM
Human and animal plasma
  aPTT: 0.06 µmol/L

## Cc1ccncc1-c1ccc(C[C@H](NC(=O)C2CCC(CN)CC2)C(=O)Nc2ccc(-c3nn[nH]n3)cc2)cc1 (stereo partly drawn) [Example 57, N-alpha-{[trans-4-(Aminomethyl)cyclohexyl]carbonyl}-4-(4-methylpyridin-3-yl)-N-[4-(2H-tetrazol-5-yl)phenyl]-L-phenylalaninamide hydrochloride]
Human factor XIa
  IC50: 4.4 nM
Human and animal plasma
  aPTT: 0.35 µmol/L

## NC[C@H]1CC[C@H](C(=O)N[C@@H](Cc2ccc(-c3cnc(N4CCOCC4)nc3)cc2)C(=O)Nc2ccc(-c3nnn[nH]3)cc2)CC1 [Example 1, N-alpha-{[trans-4-(Aminomethyl)cyclohexyl]carbonyl}-4-[2-(morpholin-4-yl)pyrimidin-5-yl]-N-[4-(1H-tetrazol-5-yl)phenyl]-L-phenylalaninamide hydrochloride]
Human factor XIa
  IC50: 5.7 nM

## NC[C@H]1CC[C@H](C(=O)N[C@@H](Cc2ccc(-c3ccc(O)nc3)cc2)C(=O)Nc2ccc(-c3nn[nH]n3)cc2)CC1 [Example 17, N-alpha-{[trans-4-(Aminomethyl)cyclohexyl]carbonyl}-4-(6-hydroxypyridin-3-yl)-N-[4-(2H-tetrazol-5-yl)phenyl]-L-phenylalaninamide hydrochloride]
Human factor XIa
  IC50: 10 nM

## CN(C)CCCOc1ccc(-c2ccc(C[C@H](NC(=O)[C@H]3CC[C@H](CN)CC3)C(=O)Nc3ccc(-c4nn[nH]n4)cc3)cc2)cn1 [Example 6, N-alpha-{[trans-4-(Aminomethyl)cyclohexyl]carbonyl}-4-{6-[3-(dimethylamino)propoxy]pyridin-3-yl}-N-[4-(2H-tetrazol-5-yl)phenyl]-L-phenylalaninamide hydrochloride]
Human factor XIa
  IC50: 15 nM

## NC[C@H]1CC[C@H](C(=O)N[C@@H](Cc2ccc(-c3ccnc(N4CCOCC4)c3)cc2)C(=O)Nc2ccc3c(=O)[nH][nH]c3c2)CC1 [Example 36, N-alpha-{[trans-4-(Aminomethyl)cyclohexyl]carbonyl}-4-[2-(morpholin-4-yl)pyridin-4-yl]-N-(3-oxo-2,3-dihydro-1H-indazol-6-yl)-L-phenylalaninamide hydrochloride]
Human factor XIa
  IC50: 7.2 nM

## NC[C@H]1CC[C@H](C(=O)N[C@@H](Cc2ccc(-c3cncc(Cl)c3)cc2)C(=O)Nc2ccc(-c3nn[nH]n3)cc2)CC1 [Example 10, N-alpha-{[trans-4-(Aminomethyl)cyclohexyl]carbonyl}-4-(5-chloropyridin-3-yl)-N-[4-(2H-tetrazol-5-yl)phenyl]-L-phenylalaninamide hydrochloride]
Human factor XIa
  IC50: 6.2 nM

## CCOc1ncccc1-c1ccc(C[C@H](NC(=O)[C@H]2CC[C@H](CN)CC2)C(=O)Nc2ccc(-c3nn[nH]n3)cc2)cc1 [Example 42, N-alpha-{[trans-4-(Aminomethyl)cyclohexyl]carbonyl}-4-(2-ethoxypyridin-3-yl)-N-[4-(2H-tetrazol-5-yl)phenyl]-L-phenylalaninamide hydrochloride]
Human factor XIa
  IC50: 3 nM

## COc1ccc(-c2ccc(C[C@H](NC(=O)[C@H]3CC[C@H](CN)CC3)C(=O)Nc3ccc4cn[nH]c4c3)cc2)c(C)n1 [Example 28, N-alpha-{[trans-4-(Aminomethyl)cyclohexyl]carbonyl}-N-1H-indazol-6-yl-4-(6-methoxy-2-methylpyridin-3-yl)-L-phenylalaninamide hydrochloride]
Human factor XIa
  IC50: 7.8 nM
